Source: US20230212170A1, “INHIBITORS OF KRAS G12C PROTEIN AND USES THEREOF” (SHANGHAI ANTENGENE CORPORATION LIMITED, priority 2020, published 2023)
Like-named read-outs stand apart in the source and are kept apart here.

What was measured:
MIA PaCa-2 = test: Tumor cell anti-proliferation assay (CTG assay), MIA PaCa-2; assay type: cell-based; conditions: MIA PaCa-2, 3-days incubation, CTG, read-out: IC50 MIA PaCa-2
Protocol: (§1) Assay 3: Tumor Cell Anti-Proliferation Assay (CTG Assay)
(§2) Tested tumor cell lines (MIA PaCa-2, NCI-H358, and A549) were seeded to the 96-well plate for overnight, then cells were treated with the test compound at 9 serially diluted concentrations in triplicate. After 3-days incubation with the test compound, the CTG assay was performed to evaluate the IC50. The 3 cell lines were tested in the same manner. Cisplatin were used as the positive control.
(§3) Day −1: Cell Plating for Cell Lines
(§4) 1. Adjust the cell concentration to the appropriated number with the medium, and for each well of a 96-well plate, add 90 μl cell suspensions (Cell concentration will be adjusted according to the data base or density optimization assay). 2. Incubate the plates for overnight in humidified incubator at […] with 5% CO2.
(§5) Day 0: T0 Plate Reading and Compound Treatment
(§6) 3. Add 10 μL culture medium to each well of plate A for T0 reading.
(§7) 4. Equilibrate the plate and its content at RT for approximately 30 min.
(§8) 5. Add 50 μL CellTiter-Glo® Reagent to each well for T0 reading.
(§9) 6. Mix contents for 2 minutes on an orbital shaker to facilitate cell lysis.
(§10) 7. Allow the plate to incubate at room temperature for 10 minutes to stabilize the luminescent signal. Note: Uneven luminescent signal within standard plates can be caused by temperature gradients, uneven seeding of cells or edge effects in multiwall plates.
(§11) 8. Place a black BackSeal sticker to the bottom of each plate.
(§12) 9. Record luminescence using an Envision Multi Label Reader.
(§13) 10. Dilute the test compound and the positive control (Cisplatin). Add 10 μL of 10× test compound working solutions into the corresponding wells. Incubate the test plates in the humidified incubator at 37° C. with 5% Co2.
(§14) Day 3: Plate Reading for 3-Day Assay
(§15) 11. Monitor under the microscope to make sure that the cells in control wells are healthy.
(§16) 12. After three days incubation, add 50 μL CellTiter-Glo® Reagent to each well.
(§17) 13. Mix contents for 2 minutes on an orbital shaker to facilitate cell lysis.
(§18) 14. Allow the plate to incubate at room temperature for 10 minutes to stabilize the luminescent signal.
(§19) 15. Note: Uneven luminescent signal within standard plates can be caused by temperature gradients, uneven seeding of cells or edge effects in multiwall plates.
(§20) 16. Place a black BackSeal sticker to the bottom of each plate.
(§21) 17. Record luminescence using an Envision Multi Label Reader.
(§22) In order to calculate IC50, a dose-response curve was fitted using nonlinear regression model with a sigmoidal dose response. The formula of the surviving rate is shown below, and the IC50 was automatically produced by GraphPad Prism 5.0.
(§23) The surviving rate […]=(LumTest compound−LumMedium control)/(LumNone treated-LumMedium control)×100%.
(§24) LumNone treated-LumMedium control is set as 100% o and LumMedium control is set as […]. T0 value will be presented as percentage of LumNone treated.

KRAS G12C [1] = target: T1, KRAS G12C (Homo sapiens, UniProt P01116, G12C); test: KRAS GDP FI assay; assay type: biochemical; conditions: kinetic reading Ex580/Em620 for 120 min
Excerpt: Assay 2: KRAS GDP FI Assay
1. Prepare compound dilution plate.
2. Transfer Inhibitor/DMSO to assay plate by Echo.
3. Prepare 1× assay buffer.
4. Prepare KRAS G12C mix & SOS1 mix & GTP mix & detection reagent mix.
5. Add KRAS G12C mix, SOS1 mix, GTP mix.
6. Add detection reagent mix to assay plate.

NCI-H358 = test: Tumor cell anti-proliferation assay (CTG assay), NCI-H358; assay type: cell-based; conditions: NCI-H358, 3-days incubation, CTG; read-out: IC50 NCI-H358
Protocol: as §1, §2, §3, §4, §5, §6, §7, §8, §9, §10, §11, §12, §13, §14, §15, §16, §17, §18, §19, §20, §21, §22, §23, §24

KRAS G12C [2] = target: T1, KRAS G12C; test: KRAS G12C nucleotide exchange assay (SOS1-mediated, mant-GDP fluorescence); assay type: biochemical; design: KRas(1-169) G12C protein; conditions: 15 min pre-incubation
Protocol: Assay 1: KRAS G12C Nucleotide Exchange Assay
1×Loading buffer: 20 mM HEPES, pH 7.5, 50 mM NaCl, 0.5 mM MgCl2, 1 mM DTT, 5 mM EDTA
1×Equilibration buffer: 20 mM HEPES, pH 7.5, 150 mM NaCl, 1 mM MgCl2, 1 mM DTT
1×Assay buffer: 20 mM HEPES, pH 7.5, 150 mM NaCl, 1 mM MgCl2, 0.01% Tween-20, 1 mM DTT
2. Load Mant GDP to KRAS G12C:
a. A mixed solution of 100 µL mant GDP and KRAS G12C was prepared with 1×loading buffer: 60 um KRAS G12C, 600 um […], incubated at room temperature for 60 minutes, and the reaction was carried out in dark conditions.
b. Add 1 uL 1 m MgCl2 (final concentration 10 mm) to stop the reaction, mix the solution upside down in the centrifuge tube, centrifugate for 3-5 seconds, and incubate at room temperature for 30 minutes.
c. At the same time of incubation for 30 minutes, balance nap-5 column with 10 ml ix equipment buffer until no liquid drops.
d. Drop the mixed solution of 100 uL mant GDP and KRAS G12C into the center of nap-5 column. After the sample completely enters nap-5 column, add 400 µL 1× equipment buffer until no liquid drops.
e. Add 500 ul 1× equipment buffer for elution and collect eluant.
f. Determination of KRAS G12C mant GDP with Bradford protein quantitative Kit.
3. Nucleotide Exchange Experiment:
a. Transfer 50 NL DMSO/compound to 384 well plate with echo550.
b. 10 uL enzyme mix was added into 384 pore plate and incubated with DMSO/compound for 15 min.
c. Initial reaction with 10 µL Sos1/GTP mix.
d. Immediately after reaction, read ex360/em440 fluorescence value in kinetic mode with Nivo.
a. Use Graphpad software to process data and draw pictures.
b. K value is obtained in Graphpad software by fitting One phase experimental deck model.
c. Z′=1-3*(SdKmax+SdKmin)/(AveKmax−AveKmin)
d. In % is calculated by the following formula:
Inh%=(Kmax−Ksample)/(Kmax−Kmin)*100

Molecule | IC50 (KRAS G12C [1]) [nM] | IC50 (MIA PaCa-2; Homo sapiens, MIA PaCa-2, 72 h) [nM] | other results
2-((S)-1-acryloyl-4-(7-(8-chloronaphthalen-1-yl)-2-(((2S,4R)-4-fluoro-1-methylpyrrolidin-2-yl) [Compound 25-a] | – | – | IC50 (MIA PaCa-2): > 10 nM
2-((S)-1-acryloyl-4-(7-(8-chloronaphthalen-1-yl)-2-(((2S,4R)-4-fluoro-1-methylpyrrolidin-2-yl) [Compound 25-b] | 37 | – | IC50 (MIA PaCa-2): 1120 nM
C=CC(=O)N1CCN(c2nc(OC[C@@H]3CCCN3C)nc3c(=O)n(-c4cccc5cccc(Cl)c45)c(C(F)(F)F)nc23)[C@@H](C)C1 (single isomer, unassigned) [Compound 24-a] | – | – | IC50 (NCI-H358): 407 nM
C=CC(=O)N1CCN(c2nc(OC[C@@H]3CCCN3C)nc3c(=O)n(-c4cccc5cccc(Cl)c45)c(C)nc23)[C@@H](C)C1 (single isomer, unassigned) [Compound 26-b] | 1500 | – | IC50 (MIA PaCa-2): 2890 nM
C=CC(=O)N1CCN(c2nc(OC[C@@H]3CCCN3C)nc3c(=O)n(-c4cccc5cccc(Cl)c45)c(CC)nc23)[C@@H](C)C1 (single isomer, unassigned) [Compound 27-b] | 900 | – | IC50 (MIA PaCa-2): 2690 nM
C=CC(=O)N1CCN(c2nc(OC[C@@H]3CCCN3C)nc3c(=O)n(-c4cccc5cccc(Cl)c45)c(C(F)(F)F)nc23)C[C@@H]1CC#N (single isomer, unassigned) [Example 32-b] | 83 | – | IC50 (MIA PaCa-2): 188 nM
C=CC(=O)N1CCN(c2nc(OC[C@@H]3CCCN3C)nc3c(=O)n(-c4c(C)ccc5[nH]ncc45)c(C)nc23)C[C@@H]1CC#N [Compound 23, 2-((S)-1-acryloyl-4-(6-methyl-7-(5-methyl-1H-indazol-4-yl)-2-(((S)-1-methylpyrrolidin-2-yl)methoxy)-8-oxo-7,8-dihydropyrimido[5,4-d]pyrimidin-4-yl)piperazin-2-yl)acetonitrile] | – | – | IC50 (KRAS G12C [2]): 710 nM
C=CC(=O)N1CCN(c2nc(OC[C@@H]3CCCN3C)nc3c(=O)n(-c4cccc5cccc(Cl)c45)c(C(F)(F)F)nc23)[C@@H](C)C1 [Compound 24, 8-((S)-4-acryloyl-2-methylpiperazin-1-yl)-3-(8-chloronaphthalen-1-yl)-6-(((S)-1-methylpyrrolidin-2-yl)methoxy)-2-(trifluoromethyl)pyrimido[5,4-d] pyrimidin-4(3H)-one] | 132 | 480 | –
C=CC(=O)N1C[C@H](C)N(c2nc(OC[C@@H]3CCCN3C)nc3c(=O)n(-c4cccc5cccc(Cl)c45)c(C)nc23)[C@@H](C)C1 [Compound 28, 8-((2S,6S)-4-acryloyl-2,6-dimethylpiperazin-1-yl)-3-(8-chloronaphthalen-1-yl)-2-methyl-6-(((S)-1-methylpyrrolidin-2-yl)methoxy)pyrimido[5,4-d]pyrimidin-4(3H)-one] | 190 | 1500 | –
C=CC(=O)N1CCN(c2nc(OC[C@@H]3CCCN3C)nc3c(=O)n(-c4cccc5ccccc45)c(C)nc23)CC1 [Example 1, (S)-8-(4-acryloylpiperazin-1-yl)-2-methyl-6-((1-methylpyrrolidin-2-yl)methoxy)-3-(naphthalen-1-yl)pyrimido[5,4-d]pyrimidin-4(3H)-one] | – | – | IC50 (KRAS G12C [2]): 35400 nM
C=CC(=O)N1CCN(c2nc(OC[C@@H]3CCCN3C)nc3c2CCCC(c2c(C)ccc4[nH]ncc24)C3)C[C@@H]1CC#N (stereo partly drawn) [Example 30, 2-((2S)-1-acryloyl-4-(8-(5-methyl-1H-indazol-4-yl)-2-(((S)-1-methylpyrrolidin-2-yl)methoxy)-6,7,8,9-tetrahydro-5H-cyclohepta[d]pyrimidin-4-yl)piperazin-2-yl)acetonitrile] | 124 | 72.7 | –
C=CC(=O)N1CCN(c2nc(OC[C@@H]3CCCN3C)nc3c(=O)n(-c4cccc5cccc(F)c45)c(C(F)(F)F)nc23)C[C@@H]1CC#N [Example 37, 2-((S)-1-acryloyl-4-(7-(8-fluoronaphthalen-1-yl)-2-(((S)-1-methylpyrrolidin-2-yl)methoxy)-8-oxo-6-(trifluoromethyl)-7,8-dihydropyrimido[5,4-d]pyrimidin-4-yl)piperazin-2-yl) acetonitrile] | 178 | – | –
C=CC(=O)N1CCN(c2nc(OC[C@@H]3CCCN3C)nc3c(=O)n(-c4c(F)cccc4OC)c(C(F)(F)F)nc23)C[C@@H]1CC#N [Example 38, 2-((S)-1-acryloyl-4-(7-(2-fluoro-6-methoxyphenyl)-2-(((S)-1-methylpyrrolidin-2-yl)methoxy)-8-oxo-6-(trifluoromethyl)-7,8-dihydropyrimido[5,4-d]pyrimidin-4-yl)piperazin-2-yl)acetonitrile] | 494 | – | –

More lines, main results first:

IC50 (KRAS G12C [1]) [nM] | IC50 (MIA PaCa-2; Homo sapiens, MIA PaCa-2, 72 h) [nM] | Molecule | other results
– | 4380 | C=CC(=O)N1CCN(c2nc(OC[C@@H]3CCCN3C)nc3c(=O)n(-c4cccc5cccc(Cl)c45)c(C)nc23)[C@@H](C)C1 (single isomer, unassigned) [Compound 26-a] | –
– | 2890 | C=CC(=O)N1CCN(c2nc(OC[C@@H]3CCCN3C)nc3c(=O)n(-c4cccc5cccc(Cl)c45)c(CC)nc23)[C@@H](C)C1 (single isomer, unassigned) [Compound 27-a] | –
– | 3720 | C=CC(=O)N1CCN(c2nc(OC[C@@H]3CCCN3C)nc3c(=O)n(-c4cccc5cccc(Cl)c45)c(C(F)(F)F)nc23)C[C@@H]1CC#N (single isomer, unassigned) [Example 32-a] | –
155 | – | C=CC(=O)N1CCN(c2nc(OC[C@@H]3C[C@@H](F)CN3C)nc3c(=O)n(-c4cccc5cccc(Cl)c45)c(C(F)(F)F)nc23)[C@@H](C)C1 (single isomer, unassigned) [Example 36-a] | –
405 | – | C=CC(=O)N1CCN(c2nc(OC[C@@H]3CCCN3C)nc3c(=O)n(-c4ccccc4F)c(C(F)(F)F)nc23)[C@@H](C)C1 (single isomer, unassigned) [Example 40-b] | –
364 | – | C=CC(=O)N1CCN(c2nc(OC[C@@H]3CCCN3C)nc3c(=O)n(-c4cccc5cccc(C)c45)c(-c4ccccc4)nc23)C[C@@H]1CC#N [Example 39, 2-((S)-1-acryloyl-4-(7-(8-methylnaphthalen-1-yl)-2-(((S)-1-methylpyrrolidin-2-yl)methoxy)-8-oxo-6-phenyl-7,8-dihydropyrimido[5,4-d]pyrimidin-4-yl)piperazin-2-yl)acetonitrile] | –
